Data on seven molecules can be found in patent US20090105237A1, “Cooling compounds” (priority 2005, published 2009).

Format in all cases: in vivo
The test system of assay [1] is mouth. As to the kind of experiment: Application in chewing gum: gum stick chewed by a panelist for 15 minutes and spit out. As to the method:
All the ingredients are mixed in the prewarmed gum base. The mixture is spread in thick films, cooled down and cut in sticks. A gum stick is chewed by a panelist for 15 minutes and spit out. […] When spit out, the cooling sensation becomes intense and lasts for several hours

For a further assay, the system named is panelists. Put plainly: Panel tasting of solutions of cooling compounds: concentration with cooling intensity similar or slightly higher than menthol at 2 ppm. As to conditions: solution with cooling intensity similar or slightly higher than a solution of menthol at 2 ppm; small group of panelists.
In assay [2] the test system is mouth. As to the kind of experiment: Application in toothpaste: panelist's teeth brushed with toothgel, mouth rinsed with water. The source says:
The chemicals are mixed in the toothgel, a piece of toothgel was put on a toothbrush and a panelist's teeth were brushed. The mouth was rinsed with water and the water was spit out. […] The cooling perception lasted for several hours.

For `CC1CCC(C(C)C)C(C(=O)Nc2ccc(C(N)=O)cc2)C1` (stereo not drawn) [Example 1, N-(4-carboxamidophenyl) p-menthanecarboxamide], the “cooling sensation when spit out” value in the assay on mouth [1] (chewing gum with 0.100 g compound per about 100 g, with peppermint oil, after 15 minutes of chewing) is listed as “intense”. Further, the “cooling sensation when chewed” value in the assay on mouth [1] (chewing gum with 0.100 g compound per about 100 g, with peppermint oil, chewed 15 minutes, all areas of the mouth) is “agreeable cooling sensation”. In addition, the “duration of cooling sensation” value in the assay on mouth [1] (chewing gum, after it is spit out) is listed as “several hours”. Further, the Concentration in the assay with panelists was 0.15 ppm.

`CC1CCC(C(C)C)C(O)C1` (stereo not drawn) [Example 1-Menthol, 1-Menthol, reference compound] returned a Concentration in the assay on panelists of 2.0 ppm.

`CC1CCC(C(C)C)C(C(=O)Nc2cccc(C(N)=O)c2)C1` (stereo not drawn) [Example 2, N-(3-carboxamidophenyl) p-menthanecarboxamide] had a Concentration with panelists of 0.2 ppm.

Take `CC1CCC(C(C)C)C(C(=O)Nc2ccccc2C(N)=O)C1` (stereo not drawn) [Example 3, N-(2-carboxamidophenyl) p-menthanecarboxamide]: the “cooling sensation after brushing” value with mouth [2] (0.500 g of a 5% gel in peppermint oil in 99.500 g opaque toothgel, after rinsing, all areas of the mouth) is “intense cooling sensation”. In addition, in the assay with mouth [2] (toothgel, after brushing and rinsing), the “duration of cooling perception” value was “several hours”. Also, the Concentration with panelists is 0.5 ppm.

Take `COCCNC(=O)c1ccc(NC(=O)C2CC(C)CCC2C(C)C)cc1` (stereo not drawn) [Example 4, 4-[p-menthanecarbonyl-amino]-N-(2-methoxy-ethyl)-benzamide]: the Concentration in the assay on panelists came to 0.25 ppm.

Turning to `CC1CCC(C(C)C)C(C(=O)Nc2ccc(C(=O)N3CCN(C)CC3)cc2)C1` (stereo not drawn) [Example 5, N-(4-(4-methylpiperazine-1-carbonyl)phenyl) p-menthanecarboxamide], the Concentration in the assay with panelists was 0.4 ppm.

`CCNC(=O)C1CC(C)CCC1C(C)C` (stereo not drawn) [N-ethyl p-menthanecarboxamide (WS-3), N-ethyl p-menthanecarboxamide, reference compound] came in with a Concentration in the assay on panelists of 1.5 ppm.
